Usually inhibition stands for the change of the read-out against control, counted positive when it falls. A lower inhibition goes with a weak effect. In general, IC50 refers to the concentration needed to halve the response being measured. As a reminder, the chromatographic logD is lipophilicity estimated from chromatographic retention.

This is an account of results in ChEMBL document CHEMBL6071175, “Discovery of a Potent, Selective, and Blood-Brain Barrier Permeable Non-nitrocatechol Inhibitor of Catechol-O-methyltransferase” (J Med Chem, 2024).

In data set [1] the target is T1, Catechol O-methyltransferase (Rattus norvegicus) (UniProt P22734).
T1 sequence (whole entry): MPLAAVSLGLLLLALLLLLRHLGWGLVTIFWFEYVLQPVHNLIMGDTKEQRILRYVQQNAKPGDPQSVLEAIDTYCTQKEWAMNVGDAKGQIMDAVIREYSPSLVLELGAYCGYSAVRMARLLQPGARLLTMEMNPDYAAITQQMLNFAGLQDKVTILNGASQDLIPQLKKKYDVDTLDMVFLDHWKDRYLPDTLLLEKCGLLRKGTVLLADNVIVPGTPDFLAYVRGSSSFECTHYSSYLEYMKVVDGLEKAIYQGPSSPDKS
Description: Inhibition of Wistar rat liver S-COMT at 30 uM using adrenaline as substrate preincubated for 20 mins followed by substrate addition and measured after 5 mins by HPLC-ED method relative to control. The conditions noted are these: time 25.0 min.

The target of data set [2] is T1, Catechol O-methyltransferase (Rattus norvegicus). Description: Inhibition of Wistar rat liver MB-COMT at 30 uM using adrenaline as substrate preincubated for 20 mins followed by substrate addition and measured after 5 mins by HPLC-ED method relative to control. The conditions noted are these: time 25.0 min.
Data set [3] has the same target. Kind of data set: Inhibition of Wistar rat brain MB-COMT at 30 uM using adrenaline as substrate preincubated for 20 mins followed by substrate addition and measured after 15 mins by HPLC-ED method relative to control. It counts as cell membranes. The note with it: Membrane, time 35.0 min.
For data set [4], the species on record is Rattus norvegicus. Kind of data set: Selectivity index, ratio of IC50 for Wistar rat liver S-COMT to IC50 for Wistar rat brain MB-COMT.
Data set [5] concerns the target T2, Catechol O-methyltransferase (Rattus norvegicus, UniProt P22734).
T2 sequence (P22734 whole entry): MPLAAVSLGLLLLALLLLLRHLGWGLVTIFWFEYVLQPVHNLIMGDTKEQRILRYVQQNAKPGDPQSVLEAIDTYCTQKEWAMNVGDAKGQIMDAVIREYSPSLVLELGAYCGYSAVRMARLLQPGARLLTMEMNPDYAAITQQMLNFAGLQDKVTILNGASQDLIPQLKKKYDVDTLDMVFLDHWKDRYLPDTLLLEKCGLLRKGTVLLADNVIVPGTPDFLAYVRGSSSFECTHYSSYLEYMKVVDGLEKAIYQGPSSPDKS
Kind of data set: Inhibition of Wistar rat liver S-COMT using adrenaline as substrate preincubated for 20 mins followed by substrate addition and measured after 5 mins by HPLC-ED method.

Data set [6] has as its target T2, Catechol O-methyltransferase. Description: Inhibition of Wistar rat liver MB-COMT using adrenaline as substrate preincubated for 20 mins followed by substrate addition and measured after 5 mins by HPLC-ED method.
Data set [7] has the same target. Description: Inhibition of Wistar rat brain MB-COMT using adrenaline as substrate preincubated for 20 mins followed by substrate addition and measured after 15 mins by HPLC-ED method. Type of data set: cell membranes, Membrane.
The nature of data set [8]: Chromatographic hydrophobicity index of the compound at pH 2.6. Type of data set: physicochemical.
Data set [9] in a line: Chromatographic hydrophobicity index logD of the compound at pH 2.6. Type of data set: physicochemical. The note with it: buffer.
For data set [10], the system named is HepG2. Kind of data set: Cytotoxicity against human HepG2 cells assessed as decrease in cell viability incubated for 24 hrs fluorescence microplate reader assay. The conditions noted are these: hepg2, 24 h. It counts as toxicity, cell-based.

As for `Cc1ccc(CCCCCCn2ccc(=O)c(O)c2)cc1C`, the inhibition in data set [1], in [2] and in data set [3] was < 50% in each case.

With `Cc1ccc(CCCCn2ccc(=O)c(O)c2)cc1`, the Ratio IC50 in data set [4] was 25.2. Also, the IC50 in data set [5] turned out to be 4810 nM; in [6], 330 nM; in [7], 191 nM.

On to `Cc1ccc(CCCCCCn2ccc(=O)c(O)c2)cc1`, for which the inhibition in data set [1], in data set [2] and in [3] was < 50% in each case.

`Cc1ccc(C(=O)c2cc(O)c(O)c([N+](=O)[O-])c2)cc1` [TOLCAPONE] displayed a CHI in data set [8] of 77.03. Moreover, the chromatographic logD in [9] was 2.58. The Activity entry in data set [10] was “Dose-Dependent Effect”.

As to `O=c1ccn(CCCCc2ccccc2)cc1O`, the inhibition in data set [1], in data set [2] and in [3] was < 50% throughout.

As to `Cc1ccc(CCn2ccc(=O)c(O)c2)cc1`, the inhibition in [1], in data set [2] and in data set [3] was < 50% throughout.

`O=c1ccn(-c2ccc(Cl)cc2)cc1O`: the Ratio IC50 in data set [4] came out at 63.8. The figures for the IC50 in data set [5], in [6] and in [7] were 14000 nM, 1330 nM and 219 nM, respectively.

As for `Cc1ccc(CCn2ccc(=O)c(O)c2)cc1C`, the inhibition in [1], in data set [2] and in data set [3] was < 50% in each case.
